Among the data in US20230145305A1, “COMPOUNDS USEFUL AS KINASE INHIBITORS” (Fochon Biosciences, Ltd., priority 2020, published 2023) are IC50 values, retold here.

For this assay, the system named is OCI-LY10 cells. In words: Cell proliferation assay (MTS) in OCI-LY10 cells. The note with it: Homo sapiens; inhibition of OCI-LY10 cells proliferation, 72 h incubation, MTS, absorbance at 490 nm; read-out: OCI-LY10 IC50. The format is cell-based. From the text: MTS testing kit was purchased from Promega (Madison, Wis., USA). The RPMI-1640, Fetal bovine serum and Penicillin-Streptomycin were purchased from BI (Biological Industries, Beit Haemek, Israel). Dimethyl sulfoxide (DMSO) was purchased from Sigma (St. Louis., Mo., USA). […] To investigate whether a compound is able to inhibit the activity of BTK in cells, a mechanism-based assay using OCI-LY10 cells was developed. In this assay, inhibition of BTK was detected by the inhibition of OCI-LY10 cells proliferation. Cells were plated into 96-well plates at a density of 10000 cells/well. Plates were incubated at 37° C., with 5% CO2 for 4 h. […] Plates were incubated at 37° C., with 5% CO2 for 72 h. 20 μl MTS was added into each well and the plates were incubated at 37° C., with 5% CO2 for exactly 2 h. The absorbance was measured by a microplate reader at 490 nm. IC50 was calculated using GraphPad Prism 5.0 software. Select compounds prepared as described above were assayed according to the biological procedures described herein.

The term IC50 denotes the concentration that gives 50% inhibition. As to `COc1ccc(F)cc1C(=O)NCc1ccc(-c2nn(C(C)(C)CF)c3c(=O)[nH]nc(N)c23)cc1` [Example 83, N-(4-(4-amino-1-(1-fluoro-2-methylpropan-2-yl)-7-oxo-6,7-dihydro-1H-pyrazolo[3,4-d]pyridazin-3-yl)benzyl)-5-fluoro-2-methoxybenzamide], the IC50 was found to be 46 nM.

For the compound `COc1ccc(F)cc1C(=O)NCc1ccc(-c2nn(C(C)(C)C)c3c(=O)[nH]nc(N)c23)cc1` [Example 66, N-(4-(4-amino-1-(tert-butyl)-7-oxo-6,7-dihydro-1H-pyrazolo[3,4-d]pyridazin-3-yl)benzyl)-5-fluoro-2-methoxybenzamide], the IC50 came to 1 nM. The result for `COc1ccc(F)cc1C(=O)NCc1ccc(-c2cn(C3CCCC3)c3c(=O)[nH]nc(N)c23)c(F)c1` [Example 31, N-(4-(4-amino-1-cyclopentyl-7-oxo-6,7-dihydro-1H-pyrrolo[2,3-d]pyridazin-3-yl)-3-fluorobenzyl)-5-fluoro-2-methoxybenzamide] reads 1 nM. The result for `CCC(C)c1nn(-c2ccc(CNC(=O)c3cc(F)ccc3OC)cc2)c2c(N)n[nH]c(=O)c12` (stereo not drawn) [Example 92a, N-(4-(7-amino-3-(sec-butyl)-4-oxo-4,5-dihydro-1H-pyrazolo[3,4-d]pyridazin-1-yl)benzyl)-5-fluoro-2-methoxybenzamide] reads 10 nM; that for `COc1ccc(F)cc1C(=O)NCc1ccc(-c2nn(C(C)C(C)C)c3c(=O)[nH]nc(N)c23)cc1` (stereo not drawn) [Example 69, N-(4-(4-amino-1-(3-methylbutan-2-yl)-7-oxo-6,7-dihydro-1H-pyrazolo[3,4-d]pyridazin-3-yl)benzyl)-5-fluoro-2-methoxybenzamide], 5 nM; that for `COc1ccc(F)cc1C(=O)NCc1ccc(-c2cn([C@@H]3CCN(S(=O)(=O)C4CC4)C3)c3c(=O)[nH]nc(N)c23)cc1` [Example 112, (R)-N-(4-(4-amino-1-(1-(cyclopropylsulfonyl)pyrrolidin-3-yl)-7-oxo-6,7-dihydro-1H-pyrrolo[2,3-d]pyridazin-3-yl)benzyl)-5-fluoro-2-methoxybenzamide], 2 nM.

With `C=CC(=O)N1CC[C@@H](n2cc(-c3ccc(CNC(=O)c4cc(F)ccc4OC)cc3)c3c(N)n[nH]c(=O)c32)C1` [Example 109, (R)-N-(4-(1-(1-acryloylpyrrolidin-3-yl)-4-amino-7-oxo-6,7-dihydro-1H-pyrrolo [2,3-d]pyridazin-3-yl)benzyl)-5-fluoro-2-methoxybenzamide], the IC50 worked out at 1 nM.

In the case of `COc1ccc(F)cc1C(=O)NCc1ccc(-c2cn([C@@H]3CCN(C(=O)OC4CC4)C3)c3c(=O)[nH]nc(N)c23)cc1` [Example 106, cyclopropyl (R)-3-(4-amino-3-(4-((5-fluoro-2-methoxybenzamido)methyl)phenyl)-7-oxo-6,7-dihydro-1H-pyrrolo[2,3-d]pyridazin-1-yl)pyrrolidine-1-carboxylate], the IC50 was found to be 11 nM. Then `COc1ccc(F)cc1C(=O)NCc1ccc(-n2cc(C3CCCC3)c3ncnc(N)c32)cc1` [Example 18, N-(4-(4-amino-7-cyclopentyl-5H-pyrrolo [3,2-d]pyrimidin-5-yl)benzyl)-5-flu oro-2-methoxybenzamide], with 1 nM; and `COc1ncc(F)cc1C(=O)NCc1ccc(-c2nn(C3CCCC3)c3c(=O)[nH]nc(N)c23)cc1` [Example 61, N-(4-(4-amino-1-cyclopentyl-7-oxo-6,7-dihydro-1H-pyrazolo[3,4-d]pyridazin-3-yl)benzyl)-5-fluoro-2-methoxynicotinamide], with 15 nM. Then `COc1ccc(F)cc1C(=O)NCc1ccc(-n2c(=O)n(C3CCCC3)c3ccnc(N)c32)cc1` [Example 22, N-(4-(4-amino-1-cyclopentyl-2-oxo-1,2-dihydro-3H-imidazo[4,5-c]pyridin-3-yl)benzyl)-5-fluoro-2-methoxybenzamide], with 44 nM; and `COc1ccc(F)cc1C(=O)NCc1ccc(-c2nn(C(C)C)c3c(=O)[nH]nc(N)c23)cc1` [Example 68, N-(4-(4-amino-1-isopropyl-7-oxo-6,7-dihydro-1H-pyrazolo[3,4-d]pyridazin-3-yl)benzyl)-5-fluoro-2-methoxybenzamide], with 2 nM; and `CC[C@@H](C)c1nn(-c2ccc(CNC(=O)c3cc(F)ccc3OC)cc2)c2c(N)n[nH]c(=O)c12` [Example 92b, (R)-N-(4-(7-amino-3-(sec-butyl)-4-oxo-4,5-dihydro-1H-pyrazolo[3,4-d]pyridazin-1-yl)benzyl)-5-fluoro-2-methoxybenzamide], with 22 nM. Turning to `COc1cc(F)c(F)cc1C(=O)NCc1ccc(-c2cn(C3CCCC3)c3c(=O)[nH]nc(N)c23)cc1` [Example 79, N-(4-(4-amino-1-cyclopentyl-7-oxo-6,7-dihydro-1H-pyrrolo[2,3-d]pyridazin-3-yl)benzyl)-4,5-difluoro-2-methoxybenzamide], the IC50 was determined as 50 nM. In the case of `COc1ccc(F)cc1C(=O)NCc1ccc(-c2nn(C3CCCC3)c3c(=O)[nH]nc(N)c23)c(F)c1` [Example 63, N-(4-(4-amino-1-cyclopentyl-7-oxo-6,7-dihydro-1H-pyrazolo[3,4-d]pyridazin-3-yl)-3-fluorobenzyl)-5-fluoro-2-methoxybenzamide], the IC50 came to 1 nM.

As to `COc1ccc(F)cc1C(=O)NCc1ccc(-n2c(=O)n(C3CCC3)c3c(=O)[nH]nc(N)c32)cc1` [Example 102, N-(4-(7-amino-3-cyclobutyl-2,4-dioxo-2,3,4,5-tetrahydro-1H-imidazo[4,5-d]pyridazin-1-yl)benzyl)-5-fluoro-2-methoxybenzamide], the IC50 stood at 76 nM. Then `COc1ccc(F)cc1C(=O)NCc1ccc(-n2nc(C3(F)CC3)c3c(=O)[nH]nc(N)c32)cc1` [Example 98, N-(4-(7-amino-3-(1-fluorocyclopropyl)-4-oxo-4,5-dihydro-1H-pyrazolo[3,4-d]pyridazin-1-yl)benzyl)-5-fluoro-2-methoxybenzamide], with 92 nM.

As for `COc1ccc(F)cc1C(=O)NCc1ccc(-c2nn([C@H](C)C(F)(F)F)c3c(=O)[nH]nc(N)c23)cc1` [Example 40b, (R)-N-(4-(4-amino-7-oxo-1-(1,1,1-trifluoropropan-2-yl)-6,7-dihydro-1H-pyrazolo[3,4-d]pyridazin-3-yl)benzyl)-5-fluoro-2-methoxybenzamide], the IC50 worked out at 83 nM.

`COc1ccc(F)cc1C(=O)NCc1ccc(-n2c(=O)n(C3CCCC3)c3c(=O)[nH]nc(N)c32)cc1` [Example 60, N-(4-(7-amino-3-cyclopentyl-2,4-dioxo-2,3,4,5-tetrahydro-1H-imidazo[4,5-d]pyridazin-1-yl)benzyl)-5-fluoro-2-methoxybenzamide]: the IC50 came out at 30 nM. Then `COc1ccc(F)cc1C(=O)NCc1ccc(-c2cn([C@@H]3CCN(S(=O)(=O)C(C)C)C3)c3c(=O)[nH]nc(N)c23)cc1` [Example 111, (R)-N-(4-(4-amino-1-(1-(isopropylsulfonyl)pyrrolidin-3-yl)-7-oxo-6,7-dihydro-1H-pyrrolo[2,3-d]pyridazin-3-yl)benzyl)-5-fluoro-2-methoxybenzamide], with 14 nM; and `COc1ccc(F)cc1C(=O)NCc1ccc(-c2nn(C3(CF)CC3)c3c(=O)[nH]nc(N)c23)cc1` [Example 82, N-(4-(4-amino-1-(1-(fluoromethyl)cyclopropyl)-7-oxo-6,7-dihydro-1H-pyrazolo[3,4-d]pyridazin-3-yl)benzyl)-5-fluoro-2-methoxybenzamide], with 3 nM.
